According to patent US20190112208A1, “COMPOSITIONS EXHIBITING SYNERGY IN BIOFILM CONTROL” (SOLENIS TECHNOLOGIES, L.P., priority 2017, published 2019):
Read-outs that look alike come from different tables or passages of the source.

Tested on: Pseudomonas putida biofilms
Assay type: cell-based
Protocol: In this work the efficacy of the agents alone and in combination were determined by measuring the number of viable cells in model biofilms remaining after treatment. The Minimum Biofilm Eradication value (MBEC) is defined as a 95% reduction in the number of viable cells compared to the untreated control. The relatively non-toxic dispersants are unable to reach that level of killing with physically possible concentrations, thus for those agents the MBEC is considered the highest value tested. Since this value is used as the divisor in the synergy index equation this highest tested value is actually an underestimate of the MBEC and thus synergy index values are also […].
Dose response studies were performed to determine the Minimum Biofilm Eradication Concentration (MBEC) for monochloramine and SDBS alone. The MBEC is defined as the concentration of agent that reduces the viable biofilm population by 95% of the untreated control value as measured by viable plate counts. Experiments were then performed to determine the result of combining the two agents, oxidizing biocide monochloramine and dispersant SDBS, on biofilm populations. The experiments examined three concentrations of monochloramine with four concentrations of SDBS. The SDBA used in the examples was Bio-Soft™ D-4 (Stepan Company, Northfield, Ill.).
M9YG media is a simple minimal salt medium supplemented with 500 mg/L glucose and 0.01% yeast extract. The salts composition is intended to mimic a typical cooling tower water composition. The composition of the media is made using the following procedure: 5XM9 salt composition is mixed using 64 gm Na2HPO4.7H2O, 15 grams KH2PO4, 2.5 gm NaCl and 5 grams NH4Cl in one liter of water. This is divided into 200 ml aliquots and sterilized (by autoclave). To 750 ml of sterile deionized water is added the sterile supplement solutions while stirring. A white precipitate will appear on addition of the CaCl2 but will dissolve with stirring. Supplement solution is 200 ml of 5XM9 composition, 2 ml of 1M MgSO4, 0.1 ml of 1M CaCl2, 20 ml of 20% glucose, 1 ml of 10% yeast extract, and enough water to make 1000 ml of solution. […]
Biofilms were grown on stainless steel 316 coupons in a CDC Biofilm reactor using M9YG minimal salts growth media for a period of twenty-four hours. […] Viable cells released into the fluid were then determined by a plating method.
Synergy indices were calculated as described in Kull et al. as in example 1.
Dose response studies were performed to determine the Minimum Biofilm Eradication Concentration (MBEC) for monochloramine/dichloramine blend (MCA/DCA) and SDBS alone. The MBEC is defined as the concentration of agent that reduces the viable biofilm population by 95% of the untreated control value as measured by viable plate counts. […]

| Compound | % Biofilm reduction (Example 1, 20 mg/L MCA alone) [%] | % Biofilm reduction (Example 1, 20 mg/L MCA alone, listed as monochloramine) | % Biofilm reduction (Example 1, 312 mg/L SDBS alone) [%] | % Biofilm reduction (Example 2, 312 mg/L SDBS alone) [%] |
| --- | --- | --- | --- | --- |
| NCl [MCA, monochloramine] | 93.58 | greater than 90% | – | – |
| Sodium dodecylbenzenesulfonates [SDBS] | – | – | 48.62 | 84.58 |
